Experimental data as given in US11692212B2, “Diagnosis and treatment of invasive aspergillosis” (The Brigham and Women's Hospital, Inc., priority 2014, dated 2023).
Starred links: 1 amine or outer side, 2 acyl side, 3 side chain; linkers in the order of their positions; H or OH if unused. Positions of bridges follow the written chain, without caps; N, C: chain ends. Non-standard residues stand in square brackets, D forms with d. Residues, ends and D or L forms follow the SMILES beside them. *: point of attachment. hTyr(3S-OH,4S-OH,3'-OSO3H) = N[C@H](C(=O)O)[C@H](O)[C@@H](O)c1ccc(O)c(OS(=O)(=O)O)c1; Orn(4R-OH,5R-OH) = O=C([C@H](C[C@@H](O)[C@@H](O)N[*:3])N[*:1])[*:2]; Pro(3S-OH,4S-Me) = C[C@H]1CN[C@H](C(=O)O)[C@H]1O; X1 = CCCCCOc1ccc(-c2cc(-c3ccc(C(=O)*)cc3)no2)cc1; Gln(3R-OH) = NC(=O)C[C@@H](O)[C@H](N)C(=O)O; Hyp = O=C(O)[C@@H]1C[C@@H](O)CN1

How the values were obtained:
A. terreus isolates = conditions: Baddley et al. 2009; cited from earlier work
[1] = tested on: A. fumigatus Af293 and A1163; experiment: A. fumigatus volatome response to antifungal drug exposure, headspace TD-GC-MS (Example 2); assay type: cell-based, Aspergillus fumigatus; conditions: 1.0 μg/mL; for all volatile metabolites 36 hours later: 36 hours after the 12-hour sampling
Protocol: We assessed whether we could modulate the A. fumigatus VOC metabolome with voriconazole, micafungin, and liposomal amphotericin B antifungal drug exposure, as described online (Methods). Headspace volatile metabolites of A. terreus, A. flavus, A. niger, and A. calidoustus were characterized as outlined above, in YPD broth at 96 hours.
Assessment of the A. fumigatus volatome response to antifungal drug exposure: For an assessment of A. fumigatus VOC response to antifungal drug exposure, 10^4A. fumigatus Af293 and A1163 conidia were inoculated into YPD broth and incubated at 37° C. at 250 rpm for 48 hours, then exposed to an inhibitory dose (1.0 μg/mL) of voriconazole (Pfizer Inc., New York, N.Y.), micafungin, liposomal amphotericin (both Astellas Pharma US, Inc., Northbrook, Ill.), or no antifungal therapy for 12 hours, in 4 technical replicates, with matched media controls exposed to the same conditions. VOCs in the headspace of each vial were extracted onto thermal desorption tubes. The cultures and media samples were incubated at 37° C. at 250 rpm for another 36 hours, with repeat extraction of the headspace gas onto thermal desorption tubes.
For both in vitro culture headspace extractions and patient breath samples, VOCs were thermally desorbed onto an automated thermal desorption unit (TD-100, Markes International) at 290° C. for 20 minutes with helium carrier gas at a flow rate of 40 mL per minute and concentrated onto a Unity2/TD-100 cold trap (U-15ATA-2S, Markes International). The cold trap was rapidly heated to 270° C. to deliver adsorbed VOCs (3.5:1 split) to a VF624 capillary column (30 m×0.32 mm, 6% cyanopropyl/phenyl, 94% polydimethylsiloxane, film thickness 1.8 μm, Agilent Technologies, Santa Clara, Calif.) with a gas chromatograph (GC) inlet temperature of 250° C. VOCs delivered to the capillary column were separated using a GC temperature program of 40° C. for 3 minutes, raised to 70° C. at a rate of 5° C. per minute and held for 3 minutes, raised to 203° C. at 7° C. per minute and held for 4 minutes, then rapidly raised to 270° C. and held for 5 minutes. A single quadrupole mass spectrometry (MS) detector (Agilent 5975, Agilent Technologies, Santa Clara, Calif.) was used to analyze and identify VOCs, with a MS source temperature of 230° C., MS quad temperature of 150° C., and an electron ionization parameter of […]. A mass range m/z 40-400 was measured with a threshold of 150.
We assessed whether we could modulate the A. fumigatus VOC metabolome with voriconazole, micafungin, and liposomal amphotericin B antifungal drug exposure. […]

Aspergillus fumigatus = experiment: Antifungal exposure of 48-hour hyphal cultures, headspace VOC release by GC-MS (Example 1); assay type: cell-based; design: increase in some of the key A. fumigatus VOC features / change of key A. fumigatus VOC features at 24 hours: dose or concentration left out as unconfirmed; conditions: for change of key A. fumigatus VOC features at 24 hours: vs matched controls
Protocol: For each experiment, 10^4 conidia were inoculated into 5 mL of microbial media (either nutrient Yeast Extract Peptone Dextrose (YPD) broth, nutrient poor Aspergillus minimal media (Pontecorvo et al., Advan Genet 1953; 5:141-238), or under iron-starved, alkaline stress, or nitrogen-depleted conditions (McDonagh et al., PLoS Pathog 2008; 4:e1000154)) in 20 mL glass vials with an airtight crimp top incorporating a rubber septum. Cultures were incubated for 24-144 hours at 200 rpm and 37° C. and headspace gas was dynamically adsorbed, using argon carrier gas and an air sampling pump calibrated to 20 mL/minute, onto Markes thermal desorption traps containing tandem beds of Tenax TA (200 mg), Carbograph 1 TD (100 mg), and Carboxen 1003 (100 mg), optimized to retain VOCs of diverse size and polarity.
Headspace VOCs were also collected after exposure of a subset of fungal isolates to the antifungal drugs voriconazole, liposomal amphotericin B, and micafungin, each at a concentration of […].
VOCs were desorbed onto a dual GC-MS/DMS system (FIG. 1)—the eluent from the gas chromatograph was split between the MS, to allow identification of each compound, and the DMS, an extremely sensitive and selective gas detector that can be easily used as a point-of-care gas detection device, to determine the mobility pattern for each compound. The NIST MS Search 2.0 Library was used to identify VOCs in the total ion chromatogram (TIC) of the GC-MS data. Differences in spectral features of DMS output were visually distinguished between the positive ion spectra of A. fumigatus and A. terreus and principal component analysis (PCA) was used to evaluate the degree of class discrimination between these fungal species using algorithms in MATLAB (Version R2012a).
Whether exposure to antifungal drugs might modulate VOC release in Aspergillus fumigatus was assessed in vitro.

[2] = drug added to 48-hour hyphal cultures, after 24 hours

Compound	susceptibility of some A. terreus isolates (A. terreus isolates)	β-trans-bergamotene increase from baseline ([1]; 12 hours of exposure, 48-hour hyphae in YPD broth) [fold]	all volatile metabolites 36 hours later [1]	increase in some of the key A. fumigatus VOC features (Aspergillus fumigatus; drug added to 48-hour hyphal cultures, after 24 hours, vs matched control samples without drug) [fold]	change of key A. fumigatus VOC features at 24 hours (Aspergillus fumigatus; [2])	change of key A. fumigatus VOC features with longer incubation (Aspergillus fumigatus; longer duration of incubation and hyphal death)	primary metabolite, monoterpene, and sesquiterpene production ([1]; 12 hours of exposure)
C[C@@H]1[C@H](O)[C@@H](C)/C=C/C=C/C=C/C=C/C=C/C=C/C=C/[C@H](O[C@@H]2O[C@H](C)[C@@H](O)[C@H](N)[C@@H]2O)C[C@@H]2O[C@](O)(C[C@@H](O)C[C@@H](O)[C@H](O)CC[C@@H](O)C[C@@H](O)CC(=O)O[C@H]1C)C[C@H](O)[C@H]2C(=O)O [AMB, amphotericin B]	resistant						
CCCCCOc1ccc(-c2cc(-c3ccc(C(=O)N[C@H]4C[C@@H](O)[C@@H](O)NC(=O)[C@@H]5[C@@H](O)[C@@H](C)CN5C(=O)[C@H]([C@H](O)CC(N)=O)NC(=O)[C@H]([C@H](O)[C@@H](O)c5ccc(O)c(OS(=O)(=O)O)c5)NC(=O)[C@@H]5C[C@@H](O)CN5C(=O)[C@H]([C@@H](C)O)NC4=O)cc3)no2)cc1 [micafungin] (X1-[Orn(4R-OH,5R-OH)]T[Hyp][hTyr(3S-OH,4S-OH,3'-OSO3H)][Gln(3R-OH)][Pro(3S-OH,4S-Me)]; lactam 1-C)		10	near-complete attenuation	≤ 17	initial increase	attenuation	
C[C@@H](c1ncncc1F)[C@](O)(Cn1cncn1)c1ccc(F)cc1F [voriconazole]			attenuation		near-complete attenuation		reduced
